# Experimental data: paper PMC6128262 (Analytical chemistry, 2018)
# How the values were obtained:
# CIAP = settings: read-out: Km value of ATP for CIAP; molybdenum blue based assay; cited from earlier work
# [1] = test system: N[C@@H](Cc1c[nH]cn1)C(=O)O; test: purified protein, by the assay type; settings: pH 8.0; 25.0 °C
# HpMTAN = settings: read-out: Km value for AdoHcy (HpMTAN); previously measured; cited from earlier work
compound,measurement,setting,value
Nc1ncnc2c1ncn2[C@@H]1O[C@H](COP(=O)(O)OP(=O)(O)OP(=O)(O)O)[C@@H](O)[C@H]1O [ATP],Km,CIAP,20.5 µM
EgtD (Mycobacterium tuberculosis H37Rv),Km,[1],330 ± 35 µM
"Nc1ncnc2c1ncn2[C@@H]1O[C@H](CSCC[C@H](N)C(=O)O)[C@@H](O)[C@H]1O [AdoHcy, S-adenosylhomocysteine]",Km,HpMTAN,5 µM
